Key:
[1] = system: PI3K/Akt/mTor signaling in blood cells; test: Kinase signaling in blood (phosflow); format: cell-based; details: anti-CD3 stimulated splenocytes or PBMC
Procedure: PI3K/Akt/mTor signaling is measured in blood cells using the phosflow method (Methods Enzymol. 2007; 434:131-54). The advantage of this method is that it is by nature a single cell assay so that cellular heterogeneity can be detected rather than population averages. This allows concurrent dinstinction of signaling states in different populations defined by other markers. Phosflow is also highly quantitative. To test the effects of one or more compounds disclosed herein, unfractionated splenocytes, or peripheral blood mononuclear cells are stimulated with anti-CD3 to initiate T-cell receptor signaling. The cells are then fixed and stained for surface markers and intracellular phosphoproteins.
Similarly, aliquots of whole blood are incubated for 15 minutes with vehicle (e.g., 0.1% DMSO) or kinase inhibitors at various concentrations, before addition of stimuli to crosslink the T cell receptor (TCR) (anti-CD3 with secondary antibody) or the B cell receptor (BCR) using anti-kappa light chain antibody (Fab′2 fragments). After approximately 5 and 15 minutes, samples are fixed (e.g., with cold 4% paraformaldehyde) and used for phosflow. […] The level of phosphrylation of kinase substrates such as Akt and S6 are then measured by incubating the fixed cells with labeled antibodies specific to the phosphorylated isoforms of these proteins. The population of cells is then analyzed by flow cytometry.

[2] = control or reference compound, 5 μM; cited from earlier work
PI3K α = PI3K α (Homo sapiens (Human), UniProt P42336); test: PI 3-Kinase (human) HTRF assay, p110α/p85α; format: biochemical
PI3K β = PI3K β (Homo sapiens (Human), UniProt P42338); test: PI 3-Kinase (human) HTRF assay, p110β/p85α; format: biochemical
Procedure: (§1) An exemplary system is PI 3-Kinase (human) HTRF™ Assay from Upstate. […] Briefly, the assay is a time resolved FRET assay that indirectly measures PIP3 product formed by the activity of a PI3-K. The kinase reaction is performed in a microtitre plate (e.g., a 384 well microtitre plate). The total reaction volume is approximately 20 ul per well. In the first step, each well receives 2 ul of test compound in 20% dimethylsulphoxide resulting in a 2% DMSO final concentration. Next, approximately 14.5 ul of a kinase/PIP2 mixture (diluted in 1× reaction buffer) is added per well for a final concentration of 0.25-0.3 ug/ml kinase and 10 μM PIP2. The plate is sealed and incubated for 15 minutes at room temperature. To start the reaction, 3.5 ul of ATP (diluted in 1× reaction buffer) is added per well for a final concentration of 10 μM ATP. The plate is sealed and incubated for 1 hour at room temperature. The reaction is stopped by adding 5 ul of Stop Solution per well and then 5 ul of Detection Mix is added per well. The plate is sealed, incubated for 1 hour at room temperature, and then read on an appropriate plate reader. Data is analyzed and IC50s are generated using GraphPad Prism 5. For PI3K α, β, δ, and γ, the nM concentration of inhibitor to reach IC50 is provided.

PI3K δ = PI3K δ (Homo sapiens (Human), UniProt O00329); test: PI 3-Kinase (human) HTRF assay, p110δ/p85α; format: biochemical
Procedure: as §1

PI3K γ = PI3K γ (Homo sapiens (Human), UniProt P48736); test: PI 3-Kinase (human) HTRF assay, p110γ; format: biochemical; details: read-out: PI3K γ IC50
T47D cells = test: T47D proliferation; format: cell-based; details: Homo sapiens
[3] = PBS pH 7.4, 37° C., 24 hours, 5 μM reference compound; cited from earlier work
mTORC = mTORC (Homo sapiens (Human), UniProt P42345); test: mTOR inhibition assay (radiometric or LanthaScreen TR-FRET); format: biochemical
Procedure: The compounds described herein can be tested against recombinant mTOR (Invitrogen) in an assay containing 50 mM HEPES, pH 7.5, 1 mM EGTA, 10 mM MgCl2, 2.5 mM, 0.01% Tween, 10 μM ATP (2.5 μCi of μ-32P-ATP), and 3 μg/mL BSA. Rat recombinant PHAS-1/4EBP1 (Calbiochem; 2 mg/mL) is used as a substrate. Reactions are terminated by spotting onto nitrocellulose, which is washed with 1M NaCl/1% phosphoric acid (approximately 6 times, 5-10 minutes each). Sheets are dried and the transferred radioactivity quantitated by phosphorimaging.
For instance, one can use Invitrogen's LanthaScreen™ Kinase assay to test the inhibitors of mTOR disclosed herein. This assay is a time resolved FRET platform that measures the phosphorylation of GFP labeled 4EBP1 by mTOR kinase. The kinase reaction is performed in a white 384 well microtitre plate. The total reaction volume is 20 ul per well and the reaction buffer composition is 50 mM HEPES pH7.5, 0.01% Polysorbate 20, 1 mM EGTA, 10 mM MnCl2, and 2 mM DTT. In the first step, each well receives 2 ul of test compound in 20% dimethylsulphoxide resulting in a 2% DMSO final concentration. Next, 8 ul of mTOR diluted in reaction buffer is added per well for a 60 ng/ml final concentration. To start the reaction, 10 ul of an ATP/GFP-4EBP1 mixture (diluted in reaction buffer) is added per well for a final concentration of 10 μM ATP and 0.5 μM GFP-4EBP1. The plate is sealed and incubated for 1 hour at room temperature. […] The plate is sealed, incubated for 1 hour at room temperature, and then read on a plate reader set up for LanthaScreen™ TR-FRET. Data is analyzed and IC50s are generated using GraphPad Prism 5.

MDA-MB-361 tumors = test: Xenogenic mouse model of breast cancer (MDA-MB-361); format: in vivo; details: 70 mg/kg Pan-PI3K inhibitor, 60 mg/kg Compound A
marginal zone B cells = test: Marginal zone B cells in mouse spleen (FACS); format: in vivo; details: 70 mg/kg Pan-PI3K inhibitor, 60 mg/kg Compound A; spleens harvested 2 hrs after last dose
Text: Spleens were harvested 2 hrs after the last dose, processed and stained with appropriate antibodies (marginal zone B cell: B220+;CD23−;CD21hi) and analyzed for staining on GUAVA EasyCyte FACS machine using Guava Cytosoft 5.2 software.

[4] = system: anti-TNP antibody production; test: TNP-Ficoll T-cell independent B-cell activation assay; format: in vivo, mouse; details: mice immunized with TNP-Ficoll; 70 mg/kg GDC0941; 30, 60, 120 mg/kg Compound A; 7 days
Procedure: To test the effects of the compounds of the present invention in suppressing T cell independent antibody production, the TNP-Ficoll B-cell activation assay is used as described herein. Compounds of the present invention are dissolved in an appropriate vehicle (e.g. 5% 1-methyl-2-pyrrolidinone, 85% polyethylene glycol 400, 10% Solutor). Compounds are administered orally approximately 1 hr before TNP-Ficoll treatment to 4-10 week old mice. To study the effects of the compounds on B-cell activation, one set of mice are grouped according to the following table:
Four animals in group 1, and eight animals in groups 2 to 7 are euthanized in CO2 2 hours after the last compound administration on day 7. […]
Serum samples are analyzed for anti-TNP antibody titers by ELISA as described herein. […] HRP substrate (200 μl ABTS solution+30% H2O2+10 ml citrate buffer) is added to each well at 100 μl/well, incubated 2-20 minutes in the dark and the amount of anti-TNP IgG3 is determined spectrophotometrically at 405 nm. Similarly, anti-TNP IgM and total anti-TNP Ab are determined using anti-mouse IgM-HRP and anti-mouse Ig-HRP respectively.
Antibody production was measured using ELISA and plotted as as a percentage of control group that were treated with vehicle.

PI3K α, sequence (P42336 whole entry): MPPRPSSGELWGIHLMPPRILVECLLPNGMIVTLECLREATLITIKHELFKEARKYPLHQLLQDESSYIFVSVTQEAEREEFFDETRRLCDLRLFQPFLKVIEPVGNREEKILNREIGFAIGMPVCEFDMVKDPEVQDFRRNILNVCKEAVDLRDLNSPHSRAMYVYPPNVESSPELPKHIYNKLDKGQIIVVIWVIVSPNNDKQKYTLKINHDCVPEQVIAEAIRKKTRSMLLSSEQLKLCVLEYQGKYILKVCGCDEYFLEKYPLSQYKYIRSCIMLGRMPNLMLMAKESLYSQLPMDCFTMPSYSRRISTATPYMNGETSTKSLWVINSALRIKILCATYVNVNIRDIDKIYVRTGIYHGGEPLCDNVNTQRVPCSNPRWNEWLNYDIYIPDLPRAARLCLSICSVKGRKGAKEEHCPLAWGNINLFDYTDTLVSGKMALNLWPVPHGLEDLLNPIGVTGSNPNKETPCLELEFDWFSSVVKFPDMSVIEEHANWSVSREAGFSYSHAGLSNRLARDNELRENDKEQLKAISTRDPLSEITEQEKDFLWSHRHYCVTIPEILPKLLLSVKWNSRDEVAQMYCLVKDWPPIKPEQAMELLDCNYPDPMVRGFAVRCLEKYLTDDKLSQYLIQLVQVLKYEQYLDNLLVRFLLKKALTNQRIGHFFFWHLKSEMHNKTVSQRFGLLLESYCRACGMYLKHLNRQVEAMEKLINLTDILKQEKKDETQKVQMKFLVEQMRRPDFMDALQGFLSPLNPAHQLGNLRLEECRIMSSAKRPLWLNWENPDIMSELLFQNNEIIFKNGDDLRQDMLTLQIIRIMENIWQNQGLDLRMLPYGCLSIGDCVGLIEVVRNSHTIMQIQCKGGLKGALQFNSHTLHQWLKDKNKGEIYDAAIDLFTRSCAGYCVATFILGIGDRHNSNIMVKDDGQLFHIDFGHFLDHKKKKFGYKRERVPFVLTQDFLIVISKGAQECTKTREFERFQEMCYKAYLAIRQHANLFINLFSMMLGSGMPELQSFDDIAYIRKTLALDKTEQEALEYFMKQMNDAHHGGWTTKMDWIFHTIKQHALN
PI3K α, sequence (P27986 whole entry partner): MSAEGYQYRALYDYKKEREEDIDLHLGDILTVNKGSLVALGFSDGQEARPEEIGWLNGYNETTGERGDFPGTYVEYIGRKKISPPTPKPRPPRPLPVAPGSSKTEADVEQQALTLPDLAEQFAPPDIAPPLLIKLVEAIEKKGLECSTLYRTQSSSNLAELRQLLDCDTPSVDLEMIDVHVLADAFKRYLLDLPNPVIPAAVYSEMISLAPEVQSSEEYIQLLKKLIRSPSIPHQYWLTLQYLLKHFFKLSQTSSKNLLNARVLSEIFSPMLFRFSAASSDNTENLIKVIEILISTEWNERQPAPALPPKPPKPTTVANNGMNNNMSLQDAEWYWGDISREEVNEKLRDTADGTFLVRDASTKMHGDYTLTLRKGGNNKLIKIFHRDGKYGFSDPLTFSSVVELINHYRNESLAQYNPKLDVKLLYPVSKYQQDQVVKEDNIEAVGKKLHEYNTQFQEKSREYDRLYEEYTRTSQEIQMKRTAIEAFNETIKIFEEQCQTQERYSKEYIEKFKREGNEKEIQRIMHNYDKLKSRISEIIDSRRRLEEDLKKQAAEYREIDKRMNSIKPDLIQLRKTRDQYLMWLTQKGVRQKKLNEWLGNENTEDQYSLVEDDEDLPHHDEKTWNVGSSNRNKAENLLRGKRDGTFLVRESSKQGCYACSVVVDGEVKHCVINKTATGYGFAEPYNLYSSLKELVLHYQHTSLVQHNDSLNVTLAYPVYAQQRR
PI3K δ, sequence (O00329 whole entry): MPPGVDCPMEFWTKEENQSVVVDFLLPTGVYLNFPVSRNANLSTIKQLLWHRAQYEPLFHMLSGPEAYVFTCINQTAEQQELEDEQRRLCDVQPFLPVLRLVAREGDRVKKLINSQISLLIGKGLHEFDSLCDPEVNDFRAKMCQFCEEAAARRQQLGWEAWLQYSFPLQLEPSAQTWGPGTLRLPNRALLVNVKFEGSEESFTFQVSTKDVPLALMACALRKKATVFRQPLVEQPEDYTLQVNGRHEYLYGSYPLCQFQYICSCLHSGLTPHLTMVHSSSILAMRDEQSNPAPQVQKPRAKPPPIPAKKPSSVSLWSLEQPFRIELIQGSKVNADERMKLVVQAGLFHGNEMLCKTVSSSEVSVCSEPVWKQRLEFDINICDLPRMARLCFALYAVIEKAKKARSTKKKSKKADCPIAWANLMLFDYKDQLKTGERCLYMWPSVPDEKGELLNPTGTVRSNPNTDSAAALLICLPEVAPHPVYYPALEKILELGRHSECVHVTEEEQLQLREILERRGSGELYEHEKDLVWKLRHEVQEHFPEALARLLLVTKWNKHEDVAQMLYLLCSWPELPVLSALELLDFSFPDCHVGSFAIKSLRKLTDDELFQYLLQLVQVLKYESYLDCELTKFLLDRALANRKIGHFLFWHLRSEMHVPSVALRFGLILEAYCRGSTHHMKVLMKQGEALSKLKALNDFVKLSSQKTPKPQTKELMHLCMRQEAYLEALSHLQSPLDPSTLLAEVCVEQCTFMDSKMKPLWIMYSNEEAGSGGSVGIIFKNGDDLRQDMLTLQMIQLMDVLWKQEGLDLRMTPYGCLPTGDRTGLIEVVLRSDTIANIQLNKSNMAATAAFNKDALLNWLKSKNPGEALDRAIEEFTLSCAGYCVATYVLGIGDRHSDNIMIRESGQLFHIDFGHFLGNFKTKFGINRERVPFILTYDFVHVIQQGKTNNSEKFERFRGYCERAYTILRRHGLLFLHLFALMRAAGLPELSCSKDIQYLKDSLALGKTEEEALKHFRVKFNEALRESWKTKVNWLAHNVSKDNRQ
PI3K δ, sequence (P27986 whole entry partner): as the sequence (P27986 whole entry partner) above
mTORC, sequence (P42345 1360-2549): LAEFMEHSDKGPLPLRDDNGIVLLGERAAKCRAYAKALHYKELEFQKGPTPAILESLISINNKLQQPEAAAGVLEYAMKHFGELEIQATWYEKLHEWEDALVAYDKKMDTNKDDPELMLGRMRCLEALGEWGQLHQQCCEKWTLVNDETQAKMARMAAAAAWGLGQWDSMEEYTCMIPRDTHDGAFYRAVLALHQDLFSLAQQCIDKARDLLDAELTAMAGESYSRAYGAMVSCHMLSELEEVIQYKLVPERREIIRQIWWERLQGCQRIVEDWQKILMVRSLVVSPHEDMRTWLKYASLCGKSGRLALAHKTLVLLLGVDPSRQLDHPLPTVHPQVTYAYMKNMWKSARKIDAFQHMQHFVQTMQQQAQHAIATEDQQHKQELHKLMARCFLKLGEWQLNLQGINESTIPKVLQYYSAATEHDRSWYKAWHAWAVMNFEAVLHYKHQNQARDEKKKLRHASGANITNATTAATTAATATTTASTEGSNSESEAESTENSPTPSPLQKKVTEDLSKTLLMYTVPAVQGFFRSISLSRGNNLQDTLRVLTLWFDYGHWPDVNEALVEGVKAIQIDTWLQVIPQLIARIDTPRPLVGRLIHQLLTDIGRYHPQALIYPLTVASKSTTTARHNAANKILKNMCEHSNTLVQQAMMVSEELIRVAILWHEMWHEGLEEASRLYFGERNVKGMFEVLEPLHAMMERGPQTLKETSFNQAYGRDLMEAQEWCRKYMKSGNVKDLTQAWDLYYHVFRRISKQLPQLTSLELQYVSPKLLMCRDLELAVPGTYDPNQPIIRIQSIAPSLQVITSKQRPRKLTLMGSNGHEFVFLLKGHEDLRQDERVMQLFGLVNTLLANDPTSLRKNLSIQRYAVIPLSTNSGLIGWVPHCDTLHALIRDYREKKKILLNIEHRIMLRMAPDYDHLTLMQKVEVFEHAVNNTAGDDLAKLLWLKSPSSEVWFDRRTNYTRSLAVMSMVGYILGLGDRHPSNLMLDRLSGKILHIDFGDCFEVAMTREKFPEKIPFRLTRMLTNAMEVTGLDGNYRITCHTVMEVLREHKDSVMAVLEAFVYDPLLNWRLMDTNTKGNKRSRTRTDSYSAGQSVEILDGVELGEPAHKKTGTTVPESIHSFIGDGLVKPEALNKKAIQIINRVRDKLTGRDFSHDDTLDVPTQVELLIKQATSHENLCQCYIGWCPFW

Structure (SMILES)	IC50 (PI3K α) [nM]	IC50 (PI3K β) [nM]	IC50 (PI3K δ) [nM]	IC50 (PI3K γ) [nM]	IC50 (mTORC) [nM]	also measured
CO[C@H]1C[C@@H]2CC[C@@H](C)[C@@](O)(O2)C(=O)C(=O)N2CCCC[C@H]2C(=O)O[C@H]([C@H](C)C[C@@H]2CC[C@@H](O)[C@H](OC)C2)CC(=O)[C@H](C)/C=C(\C)[C@@H](O)[C@@H](OC)C(=O)[C@H](C)C[C@H](C)/C=C/C=C/C=C/1C [rapamycin]						Akt phosphorylation [1]: enhances Akt phosphorylation; S6 phosphorylation [1]: inhibits S6 phosphorylation
CCCOc1cc(N)ccc1C(=O)OCCN(CC)CC [propoxycaine]						plasma stability [2]: low plasma stability
Nc1nc2cc(-c3ccc4ncc(C(=O)NC5CC5)n4c3)ccc2o1	< 100	< 10000	< 1000	< 100		IC50 (T47D cells): < 10000 nM
O=C(O)CCCc1ccc(N(CCCl)CCCl)cc1 [chlorambucil, 4-[bis(2-chloroethyl)amino]benzenebutanoic acid]						chemical stability [3]: largely hydrolyzed over the course of 24 hours
CC(C)[N+](C)(CCOC(=O)C1c2ccccc2Oc2ccccc21)C(C)C [propantheline]						plasma stability [2]: intermediate plasma stability
Nc1nc2cc(-c3ccc4ncc(N5CC(N6CCN(CCO)CC6)C5)nc4n3)ccc2o1	< 100	< 10000	< 10000	< 10000	> 10000	
CCN1CCN(C2CN(c3cnc4ccc(-c5ccc6oc(N)nc6c5)nc4n3)C2)CC1	< 100	< 10000	< 10000	< 10000	< 10000	
CS(=O)(=O)N1CCN(Cc2cc3nc(-c4cccc5[nH]ncc45)nc(N4CCOCC4)c3s2)CC1 [Pan-PI3K inhibitor, GDC0941]						reduction in tumor weight (MDA-MB-361 tumors): reduction in tumor weight; presence of MZB cells in mouse spleen (marginal zone B cells): reduced presence of MZB cells; B cell function in vivo (antibody production, % of vehicle control) [4]: blocks B cell function in vivo
CC(C)N1CCC(n2cnc3ccc(-c4ccc5oc(N)nc5c4)cc3c2=O)CC1	< 100	< 10000	> 10000	< 10000	< 10000	
Nc1nc2cc(-c3ccc4ncc(N5CC(N6CCN(CCO)CC6)C5)cc4n3)ccc2o1	< 100	< 10000	< 1000	< 1000	> 10000	
CC1(C)CN(C2CN(c3cnc4ccc(-c5ccc6oc(N)nc6c5)nc4n3)C2)CCN1	< 100	< 10000	< 1000	< 10000	> 10000	
N#Cc1cnc2ccc(-c3ccc4oc(N)nc4c3)cc2c1	< 1000	> 10000	> 10000	< 1000	< 10000	
CN1CCN(C(=O)C2CN(c3cnc4ccc(-c5ccc6oc(N)nc6c5)cc4n3)C2)CC1 [drawing 360]	< 100	< 1000	< 1000	< 10000	< 10000	
Nc1nc2cc(-c3ccn4ncc(-c5ccncc5)c4n3)ccc2o1	< 100	< 100	< 100	< 100	< 100	
Nc1nc2cc(-c3ccc4ncc(N5CC(N6CCN(CC7CC7)CC6)C5)cc4n3)ccc2o1	< 100	< 10000	< 1000	< 10000	> 10000	
Nc1nc2cc(-c3ccc4ncc(N5CC(N6CCOCC6)C5)cc4n3)ccc2o1	< 100	< 10000	< 10000	< 1000	> 10000	
Nc1nc2cccc(-c3ccc4nccc(-c5ccncc5)c4c3)c2o1 [Compound 15]	< 100	< 100	< 1000	< 1000	< 100	
Nc1nc2cc(-c3ccc4ncc(-c5cccnc5)nc4c3)ccc2o1	< 100	> 10000	> 10000	< 1000	< 10000	
CN(C)CC(=O)N1CCN(c2cnc3ccc(-c4ccc5oc(N)nc5c4)cc3n2)CC1 [drawing 329]	< 100	< 1000	< 1000	< 1000	> 10000	
Cc1nc2ccc(-c3ccc4oc(N)nc4c3)nn2c1-c1ccncc1	< 100	< 1000	> 10000	< 100	< 1000	
C[C@H]1CN(C2CN(c3cnc4ccc(-c5ccc6oc(N)nc6c5)nc4n3)C2)CCN1	< 100	> 10000	< 10000	< 10000	< 10000	
C[C@H]1CN(C2CN(c3cnc4ccc(-c5ccc6oc(N)nc6c5)nc4c3)C2)CCN1	< 100	< 10000	< 1000	< 10000	> 10000	
Cc1nccn1C1CN(c2cnc3ccc(-c4ccc5oc(N)nc5c4)nc3c2)C1	< 100	< 10000	< 1000	< 100	> 10000	
CN1CCN(C2CN(c3cnc4ccc(-c5ccc6oc(N)nc6c5)nc4n3)C2)CC1	< 100	< 10000	< 1000	> 10000	> 10000	
CN1CCN(C2CN(c3cnc4ccc(-c5ccc6oc(N)nc6c5)nc4c3)C2)CC1=O	< 100	< 10000	< 1000	< 100	< 10000	
Nc1nc2cc(-c3ccc4ncc(N5CCOCC5)nc4c3)ccc2o1	< 100	< 1000	> 10000	< 100	< 10000	
Nc1nc2cc(-c3ccc4ncnc(OC5CCOCC5)c4c3)ccc2o1 [Compound 47]	< 100	< 1000	< 1000	< 1000	< 100	
Nc1nc2cc(-c3ccc4ncc(N5CCNC(=O)C5)nc4c3)ccc2o1	< 100	< 1000	> 10000	< 1000	> 10000	
CC(=O)N1CCC(N(C)c2ncnc3ccc(-c4ccc5oc(N)nc5c4)cc23)CC1	< 100	< 1000	< 1000	< 1000	> 10000	

Reference: US9682141B2, “Combination of kinase inhibitors and uses thereof” (INTELLIKINE LLC, priority 2011, dated 2017)
